From patent US20240218022A1, “ANTI-VISTA MACROCYCLIC PEPTIDES AND COMPOSITIONS” (BRISTOL-MYERS SQUIBB COMPANY, priority 2022, published 2024)
pIC50: −log10 of the molar value. Read-outs that look alike come from different tables or passages of the source. Starred links: 1 amine or outer side, 2 acyl side, 3 side chain; linkers in the order of their positions; H or OH if unused. Positions of bridges follow the written chain, without caps; N, C: chain ends. Non-standard residues stand in square brackets, D forms with d. Residues, ends and D or L forms follow the SMILES beside them. γGlu = O=C(O)[C@H](CCC(=O)[*:2])N[*:1]; 2Nal = N[C@@H](Cc1ccc2ccccc2c1)C(=O)O; Cit = NC(=O)NCCC[C@H](N)C(=O)O; Ahp(2) = CCCCC[C@H](N)C(=O)O; NMeNle = CCCC[C@H](NC)C(=O)O; Tle = CC(C)(C)[C@H](N)C(=O)O; NMeV = CN[C@H](C(=O)O)C(C)C; Pip = O=C(O)[C@@H]1CCCCN1; NHexGly = CCCCCCNCC(=O)O; Nle = CCCC[C@H](N)C(=O)O; Orn = NCCC[C@H](N)C(=O)O; Aun = NCCCCCCCCCCC(=O)O; AEEA = NCCOCCOCC(=O)O

Target: T1, mouse VISTA (mVISTA) (Mus musculus, UniProt Q9D659)
T1 construct: expressed in transfected cells; host or cells: Human embryonic kidney 293T cells
T1 sequence (Q9D659 33-308): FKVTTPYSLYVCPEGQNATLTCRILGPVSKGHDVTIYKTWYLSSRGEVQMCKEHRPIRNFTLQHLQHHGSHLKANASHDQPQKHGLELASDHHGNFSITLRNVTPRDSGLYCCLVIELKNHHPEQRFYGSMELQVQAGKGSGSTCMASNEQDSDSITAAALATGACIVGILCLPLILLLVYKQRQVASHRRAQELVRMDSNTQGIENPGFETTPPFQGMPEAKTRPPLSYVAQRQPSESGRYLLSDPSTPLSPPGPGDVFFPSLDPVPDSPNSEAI
Test: Cell-Based Binding High-Content Assay For mVISTA (HC CBA mVISTA)
In short: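 Read-out: Alexa 647–streptavidin signal imaged on fixed, Hoechst-stained mVISTA-293T cells, with IC50 taken from a four-parameter logistic curve. Compounds competed with 2 nM biotinylated peptide for 30 min at room temperature, tested under both no-wash and wash (1 h compound, media exchange, 1 h) formats.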

[1] = cell-based binding high-content assay, mVISTA, the 15th table, read-out: HC CBA mVISTA IC50

pIC50 (read-out: HC CBA mVISTA IC50) | SMILES | also measured
 | CCCCCCN1CC(=O)N[C@@H](Cc2ccc(O)cc2)C(=O)N[C@@H](CCCC)C(=O)N[C@@H](CC(N)=O)C(=O)N[C@@H](CCCNC(N)=O)C(=O)N[C@@H](CC(C)C)C(=O)N[C@@H](CCCCC)C(=O)N2CCC[C@H]2C(=O)N[C@@H](C(C)C)C(=O)N[C@@H](CC(=O)O)C(=O)N[C@H](C(=O)NCC(=O)O)CSCC(=O)N[C@@H](Cc2ccc3ccccc3c2)C(=O)N[C@@H](Cc2c[nH]c3ccccc23)C(=O)N[C@@H](CC(=O)O)C1=O [compound 1233] ({CH2CO}-[2Nal]WD[NHexGly]Y[Nle]N[Cit]L[Ahp(2)]PVDCG-OH; thioether N-14) | pIC50 [1]: 7.98
7.66 | CCCCCCN1CC(=O)N[C@@H](Cc2ccc(O)cc2)C(=O)N[C@@H](CCCC)C(=O)N[C@@H](CC(N)=O)C(=O)N[C@@H](CCCNC(N)=O)C(=O)N(C)[C@@H](CCCC)C(=O)N[C@@H](CCCCC)C(=O)N2CCCC[C@H]2C(=O)N[C@@H](C(C)C)C(=O)N[C@@H](CO)C(=O)N[C@H](C(=O)NCC(N)=O)CSCC(=O)N[C@@H](Cc2ccccc2)C(=O)N[C@@H](Cc2c[nH]c3ccccc23)C(=O)N[C@@H](CC(=O)O)C1=O [compound 1146] ({CH2CO}-FWD[NHexGly]Y[Nle]N[Cit][NMeNle][Ahp(2)][Pip]VSCG-NH2; thioether N-14) | 
 | CCCCCCN1CC(=O)N[C@@H](Cc2ccc(O)cc2)C(=O)N[C@@H](CCCC)C(=O)N[C@@H](CC(N)=O)C(=O)N[C@@H](CCCNC(=N)N)C(=O)N(C)[C@@H](C(C)C)C(=O)N[C@@H](CCCCC)C(=O)N2CCC[C@H]2C(=O)N[C@@H](C(C)C)C(=O)N[C@@H](CC(=O)O)C(=O)N[C@H](C(=O)NCC(=O)O)CSCC(=O)N[C@@H](Cc2ccc3ccccc3c2)C(=O)N[C@@H](Cc2c[nH]c3ccccc23)C(=O)N[C@@H](CC(=O)O)C1=O [compound 1260] ({CH2CO}-[2Nal]WD[NHexGly]Y[Nle]NR[NMeV][Ahp(2)]PVDCG-OH; thioether N-14) | pIC50 [1]: 8.03
 | CCCCCCN1CC(=O)N[C@@H](Cc2ccc(O)cc2)C(=O)N[C@@H](CCCCC)C(=O)N[C@@H](CC(=O)O)C(=O)N[C@@H](CCCNC(=N)N)C(=O)N(C)[C@@H](CCCC)C(=O)N[C@@H](CCCCC)C(=O)N2CCC[C@H]2C(=O)N[C@@H](C(C)C)C(=O)N[C@@H](CC(=O)O)C(=O)N[C@H](C(=O)N[C@@H](CCC(=O)O)C(N)=O)CSCC(=O)N[C@@H](Cc2ccccc2)C(=O)N[C@@H](Cc2ccc(O)cc2)C(=O)N[C@@H](CC(=O)O)C1=O [Example 1077] ({CH2CO}-FYD[NHexGly]Y[Ahp(2)]DR[NMeNle][Ahp(2)]PVDCE-NH2; thioether N-14) | pIC50 (293T cells expressing mouse VISTA, competition with biotinylated peptide (2 nM), read-out: CBA mVISTA IC50): 7.83
7.47 | CCCCCCN1CC(=O)N[C@@H](Cc2ccc(O)cc2)C(=O)N[C@@H](CC(C)C)C(=O)NCC(=O)N[C@@H](CCCNC(=N)N)C(=O)N[C@@H](CC(C)C)C(=O)N[C@@H](CCCCC)C(=O)N2CCC[C@H]2C(=O)N[C@@H](C(C)C)C(=O)N2CCC[C@H]2C(=O)N[C@H](C(=O)NCC(N)=O)CSCC(=O)N[C@@H](Cc2ccccc2)C(=O)N[C@@H](Cc2ccc(O)cc2)C(=O)N[C@@H](CC(=O)O)C1=O [compound 1125] ({CH2CO}-FYD[NHexGly]YLGRL[Ahp(2)]PVPCG-NH2; thioether N-14) | 
7.55 | CCCCCCN1CC(=O)N[C@@H](Cc2ccc(O)cc2)C(=O)N[C@@H](CC(C)C)C(=O)N[C@@H](CC(N)=O)C(=O)N[C@@H](CCCN)C(=O)N(C)[C@@H](CCCC)C(=O)N[C@@H](CCCCC)C(=O)N2CCC[C@H]2C(=O)N[C@@H](C(C)(C)C)C(=O)N[C@@H](CO)C(=O)N[C@H](C(=O)NCCOCCOCC(=O)N[C@@H](CCC(=O)NCCOCCOCC(=O)NCCCCCCCCCCC(=O)O)C(=O)O)CSCC(=O)N[C@@H](Cc2ccccc2)C(=O)N[C@@H](Cc2ccc(O)cc2)C(=O)N[C@@H](CC(=O)O)C1=O [compound 2278] ({CH2CO}-FYD[NHexGly]YLN[Orn][NMeNle][Ahp(2)]P[Tle]SC[AEEA][γGlu][AEEA][Aun]-OH; thioether N-14) | 
7.56 | CCCCCCN1CC(=O)N[C@@H](Cc2ccc(O)cc2)C(=O)N[C@@H](CCCC)C(=O)N[C@@H](CC(=O)O)C(=O)N[C@@H](CCCNC(=N)N)C(=O)N(C)[C@@H](CCCC)C(=O)N[C@@H](CCCCC)C(=O)N2CCC[C@H]2C(=O)N[C@@H](C(C)(C)C)C(=O)N[C@@H](CO)C(=O)N[C@H](C(=O)N[C@@H](CC(N)=O)C(=O)O)CSCC(=O)N[C@@H](Cc2ccccc2)C(=O)N[C@@H](Cc2c[nH]c3ccccc23)C(=O)N[C@@H](CC(=O)O)C1=O [Example 1399] ({CH2CO}-FWD[NHexGly]Y[Nle]DR[NMeNle][Ahp(2)]P[Tle]SCN-OH; thioether N-14) | 
